According to US8153795B2, “Substituted 1-oxa-3,8-diazaspiro[4.5]-decan-2-one-compounds and the use thereof for producing drugs” (Gruenenthal GmbH, priority 2005, dated 2012):

The compounds below were run against T1, 5-HT transporter (Rattus norvegicus, UniProt P31652) (assay: 5-HT uptake inhibition in rat brain synaptosomes (medulla and pons), [3H]-5-HT).
T1 construct: from tissue; host or cells: rat brain synaptosomes (P2 fraction) from medulla and pons
Type: biochemical
Source text: a) Method for Determining Noradrenalin and 5-HT Uptake Inhibition:
Synaptosomes from rat brain regions are freshly isolated for in vitro studies, as described in the publication “The isolation of nerve endings from brain” by E. G. Gray and V. P. Whittaker, J. Anatomy 96, pages 79-88, 1962. The corresponding literature description is hereby introduced as a reference and is deemed to be part of the disclosure.
The tissue (hypothalamus for the determination of noradrenalin uptake inhibition and medulla and pons for the determination of 5-HT uptake inhibition) is homogenised in ice-cooled 0.32 M sucrose (100 mg of tissue/1 mL) in a glass homogeniser with Teflon pestle using five complete up and down strokes at 840 revolutions/minute.
The homogenate is centrifuged at 4° C. for 10 minutes at 1000 g. After subsequent centrifugation at 17000 g for 55 minutes, the synaptosomes (P2 fraction) are obtained, which are resuspended in 0.32 M […] (0.5 mL/100 mg of original weight).
The particular uptake is measured in a 96-well microtitre plate. The volume is 250 μl and the incubation proceeds at room temperature (approx. 20-25° C.) under an O2 atmosphere.
The incubation time is 7.5 minutes for [^3H]-NA and 5 minutes for [^3H]-5-HT. The 96 samples are then filtered through a Unifilter GF/B® microtitre plate (Packard) and washed with 200 mL of incubated buffer using a “Brabdel MPXRI-96T Cell-Harvester”. The Unifilter GF/B plate is dried for 1 hour at 55° C. The plate is then sealed with a Back Seal® (Packard) and 35 μl of scintillation fluid are added per well (Ultima Gold®, Packard). After sealing with a top Seal® (Packard) and establishing an equilibrium (around 5 hours), radioactivity is determined in a “Trilux 1450 Microbeta” (Wallac).
The quantity of protein used in the above determination corresponds to the values known from the literature, as for example described in “Protein measurement with the folin phenol reagent”, Lowry et al., J. Biol. Chem., 193, 265-275, 1951.
A detailed description of the method may additionally be found in the literature, for example in M. Ch. Frink, H.-H. Hennies, W. Engelberger, M. Haurand and B. Wilffert (1996) Arzneim.-Forsch./Drug Res. 46 (III), 11, 1029-1036.

T1 sequence (P31652 whole entry): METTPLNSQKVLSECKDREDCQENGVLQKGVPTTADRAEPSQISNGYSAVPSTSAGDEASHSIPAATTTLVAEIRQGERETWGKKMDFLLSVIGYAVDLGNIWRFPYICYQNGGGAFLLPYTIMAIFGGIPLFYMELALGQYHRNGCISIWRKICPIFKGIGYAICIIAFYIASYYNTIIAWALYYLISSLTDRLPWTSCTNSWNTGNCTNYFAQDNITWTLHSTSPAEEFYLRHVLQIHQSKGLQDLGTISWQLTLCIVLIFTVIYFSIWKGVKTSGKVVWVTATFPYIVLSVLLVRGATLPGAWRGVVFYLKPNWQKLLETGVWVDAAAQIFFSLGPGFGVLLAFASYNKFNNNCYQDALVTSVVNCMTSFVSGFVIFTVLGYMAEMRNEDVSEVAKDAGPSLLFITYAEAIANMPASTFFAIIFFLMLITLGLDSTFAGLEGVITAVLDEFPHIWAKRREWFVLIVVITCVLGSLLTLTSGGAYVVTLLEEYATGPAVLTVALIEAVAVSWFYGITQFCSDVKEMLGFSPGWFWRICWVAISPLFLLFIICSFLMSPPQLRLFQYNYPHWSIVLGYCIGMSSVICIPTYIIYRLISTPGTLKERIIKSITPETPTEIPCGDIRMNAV

In order of falling inhibition at 10 µM:
1. Cc1cc(C)cc(CN2CC3(CCN(C(=O)c4c(-c5ccccc5Cl)noc4C)CC3)OC2=O)c1 [Example 101, 8-[3-(2-chlorophenyl)-5-methylisoxazole-4-carbonyl]-3-(3,5-dimethylbenzyl)-1-oxa-3,8-diazaspiro[4.5]decan-2-one]  84%
2. O=C1OC2(CCN(C(=O)c3cccnc3Oc3ccccc3)CC2)CN1Cc1cccc(Br)c1 [Example 144, 3-(3-bromobenzyl)-8-(2-phenoxypyridine-3-carbonyl)-1-oxa-3,8-diazaspiro[4.5]decan-2-one]  81%
3. Cc1ccc(CN2CC3(CCN(Cc4ccc5ccccc5c4Br)CC3)OC2=O)cc1 [Example 90, 8-(1-bromonaphthalen-2-ylmethyl)-3-(4-methylbenzyl)-1-oxa-3,8-diazaspiro[4.5]decan-2-one]  77%
4. Cc1cc(C(=O)N2CCC3(CC2)CN(Cc2cccc(C#N)c2)C(=O)O3)ccc1Br [Example 147, 3-[8-(4-bromo-3-methylbenzoyl)-2-oxo-1-oxa-3,8-diazaspiro[4.5]dec-3-ylmethyl]benzonitrile]  73%
5. N#Cc1ccccc1CN1CC2(CCN(C(=O)c3ccc([N+](=O)[O-])cc3Cl)CC2)OC1=O [Example 151, 2-[8-(2-chloro-4-nitrobenzoyl)-2-oxo-1-oxa-3,8-diazaspiro[4.5]dec-3-ylmethyl]benzonitrile]  71%
6. COc1ccc([N+](=O)[O-])cc1CN1CC2(CCN(Cc3cccc([N+](=O)[O-])c3)CC2)OC1=O [Example 88, 3-(2-methoxy-5-nitrobenzyl)-8-(3-nitrobenzyl)-1-oxa-3,8-diazaspiro[4.5]decan-2-one]  70%
7. Cc1ccc(CN2CC3(CCN(C(=S)Nc4c(F)c(F)c(F)c(F)c4F)CC3)OC2=O)cc1 [Example 1, 3-(4-methylbenzyl)-2-oxo-1-oxa-3,8-diazaspiro[4.5]decane-8-carbothioic acid pentafluorophenylamide]  66%
8. COc1ccc([N+](=O)[O-])cc1CN1CC2(CCN(C(=O)c3cccc(N(C)C)c3)CC2)OC1=O [Example 138, 8-(3-dimethylaminobenzoyl)-3-(2-methoxy-5-nitrobenzyl)-1-oxa-3,8-diazaspiro[4.5]decan-2-one]  65%
9. COC(=O)CCC(=O)N1CCC2(CC1)CN(Cc1cccc(Br)c1)C(=O)O2 [Example 133, 4-[3-(3-bromobenzyl)-2-oxo-1-oxa-3,8-diazaspiro[4.5]dec-8-yl]-4-oxobutanoic acid methyl ester]  64%
10. Cc1ccc(NC(=O)N2CCC3(CC2)CN(Cc2ccc(I)cc2)C(=O)O3)cc1[N+](=O)[O-] [Example 50, 3-(4-iodobenzyl)-2-oxo-1-oxa-3,8-diazaspiro[4.5]decane-8-carboxylic acid (4-methyl-3-nitrophenyl)amide]  64%
11. CCSc1ncccc1C(=O)N1CCC2(CC1)CN(Cc1ccccc1C(F)(F)F)C(=O)O2 [Example 127, 8-(2-ethylsulfanylpyridine-3-carbonyl)-3-(2-trifluoromethylbenzyl)-1-oxa-3,8-diazaspiro[4.5]decan-2-one]  63%
12. Cc1cc(C)cc(CN2CC3(CCN(C(=O)c4ccno4)CC3)OC2=O)c1 [Example 128, 3-(3,5-dimethylbenzyl)-8-(isoxazole-5-carbonyl)-1-oxa-3,8-diazaspiro[4.5]decan-2-one]  62%
13. COc1ccc([N+](=O)[O-])cc1CN1CC2(CCN(C(=S)NCC3CCCCC3)CC2)OC1=O [Example 21, 3-(2-methoxy-5-nitrobenzyl)-2-oxo-1-oxa-3,8-diazaspiro[4.5]decane-8-carbothioic acid cyclohexylmethylamide]  55%
14. COc1cccc(NC(=O)N2CCC3(CC2)CN(Cc2ccccc2C(F)(F)F)C(=O)O3)c1 [Example 46, 2-oxo-3-(2-trifluoromethylbenzyl)-1-oxa-3,8-diazaspiro[4.5]decane-8-carboxylic acid (3-methoxyphenyl)amide]  43%
